1 compound from patent US20220098160A1, “NOVEL CDK 8/19 INHIBITORS” (BIOCAD, priority 2018, published 2022) can be followed below.

Molecules are shown by their SMILES.

Data set [1] can be described thus: Permeability through a monolayer of Caco-2 cells. Particulars: human. In kind it is in vitro ADME. The procedure: Determining the permeability through a monolayer of Caco-2 cells makes it possible to assess the ability of the substances to penetrate biological membranes by means of both active and passive transport.
The intestinal epithelial cells (Caco-2) were cultured using filter inserts ([…], BD Falcon with High Density) for 21 days, after which the monolayer integrity was checked using a Lucifer Yellow dye (Sigma-Aldrich, USA) according to the standard protocol. When setting up an A→B transfer (“intestinal lumen”—“blood flow” transfer), solutions of the tested substances were introduced in pH 6.5 buffer (HBSS, 10 mM HEPES, 15 mM glucose solution) at a concentration of 10 μM into the upper chamber, while the lower chamber was filled with pH 7.4 buffer (HBSS, 10 mM HEPES, 15 mM Glucose solution, 1% BSA). When setting up a B→A transfer (“blood flow”—“intestinal lumen” transfer), the upper chamber was filled with pH 6.5 buffer, and the solutions of the tested substances were introduced in pH 7.4 buffer at a concentration of 10 μM into the lower chamber. Propranolol, which is a high permeability substance, was used as a control.
After incubation for 2 h at 37° C. in an atmosphere containing 5% CO2, the amounts of the tested substances in the upper and lower chambers were determined by the HPLC method using an Agilent1200 chromatograph (Agilent, USA) with preliminary precipitation of proteins with acetonitrile. Chromatographic analysis was performed using a gradient elution mode at a flow rate of 1 ml/min. Peak areas corresponding to the compounds were determined on chromatograms. Based on the peak area values of the compound in calibration standards, compound concentrations in the initial solution and in the samples taken from the wells of the upper and lower chambers were determined.
Permeability through a layer of cells (Papp) was calculated based on the formula:
Papp=(C(t)*V)/(C(θ)*t*Area), where
Papp is the effective permeability constant, m/s V is the solution volume (0.8 ml in the A→B test, and 0.2 ml in the B→A test), ml Area is the surface area of the membrane (0.33 cm^2), cm^2 t is the incubation time (7,200 s), s C(θ) is the concentration of the initial solution, μM C(t) is the concentration of the solution after 2 hours (in the sample from the lower chamber well (test A→B), and in the sample from the upper chamber well (test B→A)), μM.
The value was calculated using the following formula:
efflux=Papp B-A/Papp A-B, where
Papp A-B is the permeability value during direct assay (A→B); Papp B-A is the permeability value during reverse assay (B→A);

The target in the next data set is T1, CDK8/CyclinC (Homo sapiens, UniProt P49336).
T1 construct: purchased ThermoFisher PR7261B
T1 sequence (P49336 whole entry): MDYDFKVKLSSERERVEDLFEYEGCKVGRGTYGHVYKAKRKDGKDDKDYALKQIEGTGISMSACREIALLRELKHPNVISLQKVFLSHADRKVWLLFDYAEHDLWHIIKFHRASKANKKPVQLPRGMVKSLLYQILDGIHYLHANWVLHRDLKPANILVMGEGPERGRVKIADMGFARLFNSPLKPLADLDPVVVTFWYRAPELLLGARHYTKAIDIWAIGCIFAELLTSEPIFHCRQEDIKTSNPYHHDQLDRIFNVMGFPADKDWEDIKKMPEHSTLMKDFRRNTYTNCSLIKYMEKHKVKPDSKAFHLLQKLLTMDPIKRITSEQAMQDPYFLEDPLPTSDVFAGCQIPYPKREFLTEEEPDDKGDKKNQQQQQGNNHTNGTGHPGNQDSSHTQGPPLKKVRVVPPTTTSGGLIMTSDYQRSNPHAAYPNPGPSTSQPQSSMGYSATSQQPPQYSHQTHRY
T1 sequence (P24863 whole entry partner): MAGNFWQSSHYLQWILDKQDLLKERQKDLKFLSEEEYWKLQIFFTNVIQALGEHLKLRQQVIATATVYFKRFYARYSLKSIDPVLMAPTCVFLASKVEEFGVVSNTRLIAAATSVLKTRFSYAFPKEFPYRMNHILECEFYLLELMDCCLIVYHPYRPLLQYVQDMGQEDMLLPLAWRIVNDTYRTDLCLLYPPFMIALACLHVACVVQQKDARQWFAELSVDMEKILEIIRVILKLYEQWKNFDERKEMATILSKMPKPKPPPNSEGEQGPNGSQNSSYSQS
Nature of the data set: LanthaScreen TR-FRET binding to recombinant CDK8 in complex with Cyclin C. The following applies: CDK8/CyclinC 5 nM, Tracer 236 10 nm, average of several runs; read-out: CDK8-CycC IC50. As for the experimental part:
The ability of the compounds described herein to bind to the CDK8 protein was determined using the LanthaScreen method (ThermoFisher).
The measurements were conducted in a reaction volume (15 μl) using a 384-well plate (Corning, #CLS4513). CDK8/CyclinC enzyme (ThermoFisher, #PR7261B) was mixed with Anti-His-tag-Biotin antibodies (ThermoFisher, #PV6090), Streptavidin-Eu (ThermoFisher, #PV6025), and the resulting mixture was added to the wells of the plate in the amount of 5 μl per well. The final concentrations of the substances were as follows: CDK8/CyclinC—5 nM, Streptavidin-Eu—3 nM, Anti-His-tag-Biotin—3 nM. Staurosporine was used as a control inhibitor, and a 0.1% solution of dimethyl sulfoxide (DMSO) in the reaction buffer containing 250 mM HEPES (pH 7.5), 50 mM MgCl2, 5 mM EGTA, and 0.05% Brij-35 was used as a blank.
Tested inhibitors and controls were added to the corresponding wells in the amount of 5 μl per well. The plate was incubated at room temperature for 20 minutes. […] The final concentration of the tracer was 10 nm. A reaction buffer was used as a negative control instead of the tracer solution. The plate was incubated for 40 minutes at 25° C. Then the TR-FRET signal was measured on a SPARK20 plate reader (Tesap, Switzerland) according to the manufacturer's recommendations, and converted to the amount of kinase-bound tracer. The IC50 value was determined using the SparkControl Magellan 1.2 program (Tesap, Switzerland) by approximating the experimental points using a four-parameter model with the Levenberg-Marquardt optimization (Table 11).

As to `CN1CCN(C(=O)c2ccc3cc(CCNc4ccnc5ccc(C#N)cc45)ccc3c2)CC1` [Compound 5, 4-((2-(6-(4-methylpiperazine-1-carbonyl)naphth-2-yl)ethyl)amino) quinoline-6-carbonitryl], the Papp A→B at 2 h, 10 μM in data set [1] (A→B, pH 6.5 upper / pH 7.4 lower chamber, 2 h at 37° C.) came out at 7.1 ×10⁻⁶ cm/s. For the same compound, in data set [1] (Papp B-A/Papp A-B, 2 h), the efflux ratio at 2 h, 10 μM is 2. The IC50 at CDK8/CyclinC is 6.07 nM.
